Data: patent publication US12344610B2, “APOL1 inhibitors and methods of use” (Maze Therapeutics, Inc., priority 2022, dated 2025)

molecular target: T1, APOL1 G2 (Homo sapiens, UniProt O14791, DEL388-389); test: APOL1-mediated calcium transport (calcium influx) assay, HEK T-REx/GCaMP6f/APOL1 G2 K6.3 cells, FLIPR TETRA; assay type: cell-based; conditions: prevention of calcium influx; geometric mean of at least 2 assay runs; † = average of a technical replicate from a single assay run
T1 construct: expressed in transfected cells; host or cells: HEK293 T-REx clonal line stably expressing GCaMP6f (HEK T-REx/GCaMP6f/APOL1 G2 K6.3), doxycycline induced
T1 sequence (O14791 with tags, fused parts or gaps DEL388-389): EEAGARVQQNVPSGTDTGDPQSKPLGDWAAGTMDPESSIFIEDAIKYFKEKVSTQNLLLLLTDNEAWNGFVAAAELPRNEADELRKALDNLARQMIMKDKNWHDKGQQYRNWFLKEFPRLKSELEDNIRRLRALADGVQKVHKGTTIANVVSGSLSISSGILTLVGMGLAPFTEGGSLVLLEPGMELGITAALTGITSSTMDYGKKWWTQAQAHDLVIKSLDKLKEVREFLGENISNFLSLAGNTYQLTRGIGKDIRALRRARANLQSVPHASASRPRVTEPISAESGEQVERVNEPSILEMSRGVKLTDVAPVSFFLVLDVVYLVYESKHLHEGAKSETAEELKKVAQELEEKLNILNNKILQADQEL
Procedure, shortened: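 A HEK293 T-REx clone stably expressing GCaMP6f had APOL1 G2 induced with doxycycline (20 ng/mL solution added) for 6 h. Cells were then washed into Ca2+-free Tyrode's buffer (pH 7.4) and preincubated with compounds (duplicate 8-point) for 10 min at room temperature. Ca2+ injection to 5 mM final produced FLIPR GCaMP fluorescence, giving AC50 for influx inhibition (geometric mean, ≥2 runs).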

Q: For `NC(=O)c1ccc(OCCN2CCC3(CC2)C(=O)Nc2ccc(Cl)cc23)cc1C(F)F` [Compound 249, 4-(2-{5-chloro-2-oxo-1,2-dihydrospiro[indole-3,4′-piperidin]-1′-yl}ethoxy)-2-(difluoromethyl)benzamide], which AC50 is on record?
A: The AC50 was 0.433 µM.

Q: With `N#Cc1ccc2c(c1)C1(CCN(CCOc3ccc(C(N)=O)c(C(F)F)c3)CC1)C(=O)N2` [Compound 250, 4-(2-{5-cyano-2-oxo-1,2-dihydrospiro[indole-3,4′-piperidin]-1′-yl}ethoxy)-2-(difluoromethyl)benzamide] as the compound, how does the AC50 read?
A: Its AC50 is 0.559 µM.

Q: With `CN1C(=O)C2(CCN(CCOc3ccc(C4(S(C)(=O)=O)COC4)cc3)CC2)c2cc(C#N)ccc21` [Compound 251, 1′-{2-[4-(3-methanesulfonyloxetan-3-yl)phenoxy]ethyl}-1-methyl-2-oxo-1,2-dihydrospiro[indole-3,4′-piperidine]-5-carbonitrile] as the compound, how does the AC50 read?
A: The AC50 was 0.546 µM.

Q: Which AC50 does the source give for `CN(C)C(=O)C1(c2ccc(OCCN3CCC4(CC3)C(=O)Nc3ccc(C#N)cc34)cc2)COC1` [Compound 254, 3-[4-(2-{5-cyano-2-oxo-1,2-dihydrospiro[indole-3,4′-piperidin]-1′-yl}ethoxy)phenyl]-N,N-dimethyloxetane-3-carboxamide] here?
A: Its AC50 is 0.898 µM.

Q: Which AC50 does the source give for `CNC(=O)C1(c2ccc(OCCN3CCC4(CC3)C(=O)Nc3ccc(C#N)cc34)cc2)COC1` [Compound 255, 3-[4-(2-{5-cyano-2-oxo-1,2-dihydrospiro[indole-3,4′-piperidin]-1′-yl}ethoxy)phenyl]-N-methyloxetane-3-carboxamide] here?
A: Its AC50 is 2.64 µM.

Q: With `O=C(c1c(F)cc(OCCN2CCC3(CC2)C(=O)Nc2ccc(Cl)cc23)cc1F)N1CCS(=O)(=O)CC1` [Compound 259, 4-[4-(2-{5-chloro-2-oxo-1,2-dihydrospiro[indole-3,4′-piperidin]-1′-yl}ethoxy)-2,6-difluorobenzoyl]-1λ^6-thiomorpholine-1,1-dione] as the compound, how does the AC50 read?
A: Its AC50 is 0.651 µM.

Q: Which AC50 does the source give for `CN1C(=O)C2(CCN(CCOc3cc(F)c(C(=O)N4CCS(=O)(=O)CC4)c(F)c3)CC2)c2cc(C#N)ccc21` [Compound 260, 1′-{2-[4-(1,1-dioxo-1λ^6-thiomorpholine-4-carbonyl)-3,5-difluorophenoxy]ethyl}-1-methyl-2-oxo-1,2-dihydrospiro[indole-3,4′-piperidine]-5-carbonitrile] here?
A: The AC50 was 1.38 µM.

Q: `CN1C(=O)C2(CCN(CCOc3ccc(C(=O)N4CCS(=O)(=O)CC4)c(C(F)(F)F)c3)CC2)c2cc(C#N)ccc21` [Compound 261, 1′-{2-[4-(1,1-dioxo-1λ^6-thiomorpholine-4-carbonyl)-3-(trifluoromethyl)phenoxy]ethyl}-1-methyl-2-oxo-1,2-dihydrospiro[indole-3,4′-piperidine]-5-carbonitrile] was tested. Which AC50 did it give?
A: The AC50 was 1.46 µM.

Q: With `CS(=O)(=O)c1ccc(OCCN2CCC3(CC2)C(=O)N(CCO)c2ccc(Cl)cc23)cc1C(F)F` [Compound 265, 5-chloro-1′-{2-[3-(difluoromethyl)-4-methanesulfonylphenoxy]ethyl}-1-(2-hydroxyethyl)-1,2-dihydrospiro[indole-3,4′-piperidin]-2-one] as the compound, how does the AC50 read?
A: The AC50 was 0.697 µM.

Q: Which AC50 does the source give for `CS(=O)(=O)c1ccc(OCCN2CCC3(CC2)C(=O)N(CCO)c2ccc(C#N)cc23)cc1C(F)F` [Compound 266, 1′-{2-[3-(difluoromethyl)-4-methanesulfonylphenoxy]ethyl}-1-(2-hydroxyethyl)-2-oxo-1,2-dihydrospiro[indole-3,4′-piperidine]-5-carbonitrile] here?
A: Its AC50 is 0.862 µM.

Q: How did the AC50 turn out when `O=C(c1ccc(OCCN2CCC3(CC2)C(=O)Nc2ccc(Cl)cc23)cc1C(F)(F)F)N1CCS(=O)(=O)CC1` [Compound 272, 4-[4-(2-{5-chloro-2-oxo-1,2-dihydrospiro[indole-3,4′-piperidin]-1′-yl}ethoxy)-2-(trifluoromethyl)benzoyl]-1λ^6-thiomorpholine-1,1-dione] was run?
A: The AC50 was 0.921 µM.

Q: `CS(=O)(=O)N1CC2(CN(C(=O)c3ccc(OCCN4CCC5(CC4)C(=O)Nc4ccc(Cl)cc45)cc3F)C2)C1` [Compound 273, 5-chloro-1′-[2-(3-fluoro-4-{6-methanesulfonyl-2,6-diazaspiro[3.3]heptane-2-carbonyl}phenoxy)ethyl]-1,2-dihydrospiro[indole-3,4′-piperidin]-2-one] was tested. Which AC50 did it give?
A: Its AC50 is 2.1 µM.

Q: `C[C@]1(O)C[C@@H](N2C(=O)CCc3cc(OCCN4CCC5(CC4)C(=O)Nc4ccc(C(F)F)cc45)cnc32)C1` [Compound 274, 5-(difluoromethyl)-1′-[2-({7-oxo-8-[(cis)-3-hydroxy-3-methylcyclobutyl]-5,6,7,8-tetrahydro-1,8-naphthyridin-3-yl}oxy)ethyl]-1,2-dihydrospiro[indole-3,4′-piperidin]-2-one] was tested. Which AC50 did it give?
A: The AC50 was 0.722 µM.

Q: Which AC50 does the source give for `C[C@]1(O)C[C@@H](N2C(=O)CCc3cc(OCCN4CCC5(CC4)C(=O)Nc4ccc(Cl)cc45)cnc32)C1` [Compound 275, 5-chloro-1′-[2-({7-oxo-8-[(cis)-3-hydroxy-3-methylcyclobutyl]-5,6,7,8-tetrahydro-1,8-naphthyridin-3-yl}oxy)ethyl]-1,2-dihydrospiro[indole-3,4′-piperidin]-2-one] here?
A: The AC50 was 0.64 µM.

Q: `CS(=O)(=O)C1(c2ncc(OCCN3CCC4(CC3)C(=O)Nc3ccc(Cl)cc34)cn2)COC1` [Compound 276, 5-chloro-1′-(2-{[2-(3-methanesulfonyloxetan-3-yl)pyrimidin-5-yl]oxy}ethyl)-1,2-dihydrospiro[indole-3,4′-piperidin]-2-one] was tested. Which AC50 did it give?
A: Its AC50 is 1.75 µM.

Q: How did the AC50 turn out when `CS(=O)(=O)C1(c2ncc(OCCN3CCC4(CC3)C(=O)Nc3ccc(C#N)cc34)cc2F)CC1` [Compound 283, 1′-(2-{[5-fluoro-6-(1-methanesulfonylcyclopropyl)pyridin-3-yl]oxy}ethyl)-2-oxo-1,2-dihydrospiro[indole-3,4′-piperidine]-5-carbonitrile] was run?
A: The AC50 was 2 µM.

Q: For `CC(O)c1ncc(OCCN2CCC3(CC2)C(=O)Nc2ccc(Cl)cc23)cn1` (stereo not drawn) [Compound 284, 5-chloro-1′-(2-{[2-(1-hydroxyethyl)pyrimidin-5-yl]oxy}ethyl)-1,2-dihydrospiro[indole-3,4′-piperidin]-2-one], which AC50 is on record?
A: The AC50 was 0.756 µM.

Q: How did the AC50 turn out when `C[C@]1(O)C[C@@H](N2C(=O)OCc3cc(OCCN4CCC5(CC4)C(=O)Nc4ccc(Cl)cc45)cnc32)C1` [Compound 289, 5-chloro-1′-[2-({2-oxo-1-[(cis)-3-hydroxy-3-methylcyclobutyl]-1H,2H,4H-pyrido[2,3-d][1,3]oxazin-6-yl]oxy)ethyl]-1,2-dihydrospiro[indole-3,4′-piperidin]-2-one] was run?
A: The AC50 was 0.552 µM.

Q: With `CC1(O)CN(c2ncc(OCCN3CCC4(CC3)C(=O)Nc3ccc(Cl)cc34)cn2)C1` [Compound 300, 5-chloro-1′-(2-{[2-(3-hydroxy-3-methylazetidin-1-yl)pyrimidin-5-yl]oxy}ethyl)-1,2-dihydrospiro[indole-3,4′-piperidin]-2-one] as the compound, how does the AC50 read?
A: The AC50 was 0.674 µM.

Q: How did the AC50 turn out when `O=C1Nc2ccc(Cl)cc2C12CCN(CCOc1cnc(N3CC(O)C3)nc1)CC2` [Compound 301, 5-chloro-1′-(2-{[2-(3-hydroxyazetidin-1-yl)pyrimidin-5-yl]oxy}ethyl)-1,2-dihydrospiro[indole-3,4′-piperidin]-2-one] was run?
A: The AC50 was 0.586 µM.

Q: How did the AC50 turn out when `CS(=O)(=O)C1CN(c2ncc(OCCN3CCC4(CC3)C(=O)Nc3ccc(Cl)cc34)cn2)C1` [Compound 302, 5-chloro-1′-(2-{[2-(3-methanesulfonylazetidin-1-yl)pyrimidin-5-yl]oxy}ethyl)-1,2-dihydrospiro[indole-3,4′-piperidin]-2-one] was run?
A: Its AC50 is 1.03 µM.

Q: Which AC50 does the source give for `CC(C)(O)c1ncc(OCCN2CCC3(CC2)C(=O)Nc2ccc(Cl)cc23)cn1` [Compound 305, 5-chloro-1′-(2-{[2-(2-hydroxypropan-2-yl)pyrimidin-5-yl]oxy}ethyl)-1,2-dihydrospiro[indole-3,4′-piperidin]-2-one] here?
A: Its AC50 is 0.649 µM.

Q: With `CC1(O)CN(c2nccc3cc(OCCN4CCC5(CC4)C(=O)Nc4ccc(Cl)cc45)cnc23)C1` [Compound 306, 5-chloro-1′-(2-{[8-(3-hydroxy-3-methylazetidin-1-yl)-1,7-naphthyridin-3-yl]oxy}ethyl)-1,2-dihydrospiro[indole-3,4′-piperidin]-2-one] as the compound, how does the AC50 read?
A: The AC50 was 1.4 µM.

Q: How did the AC50 turn out when `O=C1Nc2ccc(Cl)cc2C12CCN(CCOc1cnc3c(N4CC(O)C4)nccc3c1)CC2` [Compound 314, 5-chloro-1′-(2-{[8-(3-hydroxyazetidin-1-yl)-1,7-naphthyridin-3-yl]oxy}ethyl)-1,2-dihydrospiro[indole-3,4′-piperidin]-2-one] was run?
A: The AC50 was 0.968 µM.
